Source: US9447408B2, “Method of efficiently establishing induced pluripotent stem cells” (Kyoto University, priority 2010, dated 2016)

Tests used:
[1] = test system: Human dermal fibroblasts (Tig109 line); assay: Human iPS cell colony formation, 3 genes introduced, various p38 inhibitors; assay type: cell-based; settings: 10 μM inhibitor
Description: Human dermal fibroblasts (Tig109 line) were treated using a lentivirus (pLenti6/UbC-Slc7a1) according to the method described by Takahashi, K. et al. in Cell, 131: 861-872 (2007), to express the mouse ecotropic virus receptor Slc7a1 gene. These cells (2×10^5 cells/10 cm dish) were transfected with the four genes using a retrovirus according to the method described by Takahashi, K. et al. in Cell, 131: 861-872 (2007); each compound was added per the schedule shown below. • 1. Oct3/4, Sox2, Klf4, c-Myc, each derived from human, saline • 2. Oct3/4, Sox2, Klf4, c-Myc, each derived from human, DMSO (Day 5-35) • 3. Oct3/4, Sox2, Klf4, c-Myc, each derived from human, SB202190 10 μM (Day 5-20) • 4. Oct3/4, Sox2, Klf4, c-Myc, each derived from human, SB239063 10 μM (Day 5-20) • 5. Oct3/4, Sox2, Klf4, c-Myc, each derived from human, SB202190 10 μM (Day 21-35) • 6. Oct3/4, Sox2, Klf4, c-Myc, each derived from human, SB239063 10 μM (Day 21-35) • 7. Oct3/4, Sox2, Klf4, c-Myc, each derived from human, SB202190 10 μM (Day 5-35) • 8. Oct3/4, Sox2, Klf4, c-Myc, each derived from human, SB239063 10 μM (Day 5-35) Subsequently, three genes (Oct3/4, Sox2, Klf4) were introduced using a retrovirus in the same manner, and the efficiency of iPS cell establishment was compared. • 1. Oct3/4, Sox2, Klf4, each derived from human, saline • 2. Oct3/4, Sox2, Klf4, each derived from human, DMSO (Day 5-35) • 3. […]

[2] = test system: Mouse embryonic fibroblasts (MEFs); assay: iPS cell establishment from MEFs, 3 genes (Oct3/4, Sox2, Klf4) introduced, with p38 inhibitors; assay type: cell-based; settings: 10 μM inhibitor, 2×10^4 cells/10 cm dish, FIG. 2
Description: Three genes were introduced using a retrovirus by the same experimental procedures as the above. The cells were cultured at a cell density of 2×10^4 cells/10 cm dish, with the addition of 10 μM of SB202190, SB239063, or SB203580 (Calbiochem Company) to the medium per the schedule shown below, and the establishment efficiency was compared. • 1. Oct3/4, Sox2, Klf4, each derived from mouse, saline • 2. Oct3/4, Sox2, Klf4, each derived from mouse, DMSO • 3. Oct3/4, Sox2, Klf4, each derived from mouse, SB202190 10 μM (Day 1-4) • 4. Oct3/4, Sox2, Klf4, each derived from mouse, SB202190 10 μM (Day 1-8) • 5. Oct3/4, Sox2, Klf4, each derived from mouse, SB202190 10 μM (Day 9-16) • 6. Oct3/4, Sox2, Klf4, each derived from mouse, SB202190 10 μM (Day 1-16) • 7. Oct3/4, Sox2, Klf4, each derived from mouse, SB239063 10 μM (Day 1-4) • 8. Oct3/4, Sox2, Klf4, each derived from mouse, SB239063 10 μM (Day 1-8) • 9. Oct3/4, Sox2, Klf4, each derived from mouse, SB239063 10 μM (Day 9-16) • 10. Oct3/4, Sox2, Klf4, each derived from mouse, SB239063 10 μM (Day 1-16) • 11. Oct3/4, Sox2, Klf4, each derived from mouse, SB203580 10 μM (Day 1-4) • 12. Oct3/4, Sox2, Klf4, each derived from mouse, SB203580 10 μM (Day 1-8) • 13. Oct3/4, Sox2, Klf4, each derived from mouse, SB203580 10 μM (Day 9-16) • 14. Oct3/4, Sox2, Klf4, each derived from mouse, SB203580 10 μM (Day 1-16),

Oc1ccc(-c2nc(-c3ccc(F)cc3)c(-c3ccncc3)[nH]2)cc1 [SB202190, 4-(4-fluorophenyl)-2-(4-hydroxyphenyl)-5-(4-pyridyl)imidazole]
number of iPS cell colonies on day 40 after the infection compared with physiological saline and DMSO [1]: increased remarkably | number of positive colonies on day 32 after the infection compared with physiological saline and DMSO [1]: increased

COc1nccc(-c2c(-c3ccc(F)cc3)ncn2[C@H]2CC[C@H](O)CC2)n1 [SB239063, trans-1-(4-Hydroxycyclohexyl)-4-(4-fluorophenyl)-5-(2-methoxypyrimidin-4-yl)imidazole]
number of Nanog-GFP-positive colonies compared with physiological saline or DMSO [2]: increased | total number of colonies compared with physiological saline or DMSO [2]: increased
